Assay [1] deals with T1, human orexin-1 receptor (hOX1R) (Homo sapiens, UniProt O43613).
T1 construct: expressed in transfected cells; host or cells: Chinese hamster ovary (CHO) cells
T1 sequence (O43613 1-425): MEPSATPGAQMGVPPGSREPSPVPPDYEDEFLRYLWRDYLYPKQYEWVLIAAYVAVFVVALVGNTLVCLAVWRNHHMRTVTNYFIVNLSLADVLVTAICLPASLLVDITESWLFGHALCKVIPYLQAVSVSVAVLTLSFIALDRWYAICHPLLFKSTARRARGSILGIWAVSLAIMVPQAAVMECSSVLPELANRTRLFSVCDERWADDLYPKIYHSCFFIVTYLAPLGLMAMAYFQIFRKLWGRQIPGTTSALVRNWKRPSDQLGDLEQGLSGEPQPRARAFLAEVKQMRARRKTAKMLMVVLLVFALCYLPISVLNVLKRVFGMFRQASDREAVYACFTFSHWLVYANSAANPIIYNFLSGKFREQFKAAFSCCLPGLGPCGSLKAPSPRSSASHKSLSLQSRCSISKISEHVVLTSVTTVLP
Briefly: FLIPR Ca2+ Flux Assay, hOX1R. The format is cell-based. To be noted: CHO cells expressing hOX1R; agonist Ala-6,12 human orexin-A 70 pM. The text has this:
(§1) The utility of the compounds in accordance with the present invention as orexin receptor OX1R and/or OX2R antagonists may be readily determined without undue experimentation by methodology well known in the art, including the “FLIPR Ca^2+ Flux Assay” (Okumura et al., Biochem. Biophys. Res. Comm. 2001, 280:976-981). Briefly, for intracellular calcium measurements, Chinese hamster ovary (CHO) cells expressing the orexin-1 receptor (e.g., rat or human) or the orexin-2 receptor (e.g., rat or human), are grown in Iscove's modified DMEM containing 2 mM L-glutamine, […], 1% hypoxanthine-thymidine supplement, 100 U/ml penicillin, 100 μg/ml streptomycin and 10% heat-inactivated fetal calf serum (FCS). The cells are seeded at approximately 20,000 cells per well into 384-well clear bottom sterile plates coated with poly-D-lysine. The seeded plates are incubated overnight at 37° C. and 5% CO2. Human ala-6,12 orexin-A can be used as the agonist and prepared as a 1 mM stock solution in 1% bovine serum albumin (BSA) and diluted in assay buffer (HBSS containing 20 mM HEPES, 0.1% BSA and 2.5 mM probenecid, pH7.4) for use in the assay at a final concentration of 70 pM. Test compounds are prepared as 10 mM stock solution in DMSO, then diluted in 384-well plates, first in DMSO, then in assay buffer. On the day of the assay, cells are washed 3 times with 100 μl assay buffer and then incubated for 60 minutes (37° C., 5% CO2) in 60 μl assay buffer containing 1 μM Fluo-4AM ester, 0.02% pluronic acid, and 1% BSA. The dye loading solution is then aspirated and cells are washed 3 times with 100 μl assay buffer. 30 μl of that same buffer is left in each well. Within the Fluorescent Imaging Plate Reader (FLIPR, Molecular Devices), test compounds are added to the plate in a volume of 25 μl, incubated for 5 minutes, and then 25 μl of agonist is added. Fluorescence is measured for each well at 1 second intervals for 5 minutes, and the height of each fluorescence peak is compared to the height of the fluorescence peak induced by 70 pM of agonist ala-6,12 orexin-A with buffer in place of test compound. IC50 value for the test compound is determined to be the concentration of compound needed to inhibit 50% of the agonist response. Alternatively, compound potency can be assessed using a radioligand binding assay (described in Bergman et. al. Bioorg. Med. Chem. Lett. 2008, 18:1425-1430) in which the inhibition constant (Ki) is determined in membranes prepared from CHO cells expressing either the OX1 or OX2 receptor. The intrinsic orexin receptor antagonist activity of a compound of the present invention may be determined by these assays.
(§2) Chinese hamster ovary (CHO) cells expressing the human orexin-1 receptor (hOX1R) or the human orexin-2 receptor (hOX2R) were grown in Iscove's modified DMEM containing 2 mM L-glutamine, […], 1% hypoxanthine-thymidine supplement, 100 U/ml penicillin, 100 μg/ml streptomycin and 10% heat-inactivated fetal calf serum (FCS). The cells were seeded at −20,000 cells/well into Becton-Dickinson black 384-well clear bottom sterile plates coated with poly-D-lysine. All reagents were from GIBCO-Invitrogen Corp. The seeded plates were incubated overnight at 37° C. and 5% CO2. Ala-6,12 human orexin-A, used as the agonist, was prepared as a 1 mM stock solution in 1% bovine serum albumin (BSA) and diluted in assay buffer (HBSS containing 20 mM HEPES, 0.1% BSA and 2.5 mM probenecid, pH7.4) for use in the assay at a final concentration of 70 pM. Test compounds were prepared as 10 mM stock solution in DMSO, then diluted in 384-well plates, first in DMSO, then assay buffer.
(§3) On the day of the assay, cells were washed 3× with 100 μl assay buffer and then incubated for 60 minutes (37° C., 5% CO2) in 60 μl assay buffer containing 1 μM Fluo-4AM ester, 0.02% pluronic acid, and 1% BSA. The dye loading solution was then aspirated and cells were washed 3× with 100 μl assay buffer. 30 μl of that same buffer was left in each well. […]

Assay [2] addresses T2, human orexin-2 receptor (hOX2R) (Homo sapiens, UniProt O43614).
T2 construct: expressed in transfected cells; host or cells: Chinese hamster ovary (CHO) cells
T2 sequence (O43614 1-444): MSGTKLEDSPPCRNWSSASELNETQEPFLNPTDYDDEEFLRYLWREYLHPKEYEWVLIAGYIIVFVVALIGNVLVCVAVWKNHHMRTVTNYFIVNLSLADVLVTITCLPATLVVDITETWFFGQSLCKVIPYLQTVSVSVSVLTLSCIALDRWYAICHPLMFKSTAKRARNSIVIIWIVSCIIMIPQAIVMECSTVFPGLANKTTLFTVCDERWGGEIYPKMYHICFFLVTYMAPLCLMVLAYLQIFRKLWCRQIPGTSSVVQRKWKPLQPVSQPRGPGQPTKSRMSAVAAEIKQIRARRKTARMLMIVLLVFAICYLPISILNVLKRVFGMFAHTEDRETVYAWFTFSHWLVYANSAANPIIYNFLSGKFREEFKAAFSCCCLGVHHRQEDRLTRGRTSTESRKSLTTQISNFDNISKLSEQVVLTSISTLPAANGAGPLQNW
The assay is described as follows: FLIPR Ca2+ Flux Assay, hOX2R. The format is cell-based. The following applies: CHO cells expressing hOX2R; agonist Ala-6,12 human orexin-A 70 pM.
Excerpt: as §1, §2, §3

As to `C[C@@H]1CC[C@@H](Oc2nccc(C(F)(F)F)c2F)CN1C(=O)c1ccccc1-n1nccn1` [Example 1, 3-Fluoro-2-{[(3R,6R)-6-methyl-1-{[2-(2H-1,2,3-triazol-2-yl)phenyl]carbonyl}piperidin-3-yl]oxy}-4-(trifluoromethyl)pyridine], the IC50 in assay [1] was found to be 839 nM; in assay [2], 38.5 nM.

In assay [2], `COc1ccc(C(=O)N2C[C@H](Oc3nccc(C(F)(F)F)c3F)CC[C@H]2C)c(-n2nccn2)n1` [Example 2, 3-fluoro-2-{[(3R,6R)-1-{[6-methoxy-2-(2H-1,2,3-triazol-2-yl)pyridin-3-yl]carbonyl}-6-methylpiperidin-3-yl]oxy}-4-(trifluoromethyl)pyridine] returned a half-maximal inhibitory concentration (IC50) of 105 nM.

Turning to `C[C@@H]1CC[C@@H](Oc2cc(C(F)(F)F)ccn2)CN1C(=O)c1ccccc1-n1nccn1` [Example 3, 2-{[(3R,6R)-6-methyl-1-{[2-(2H-1,2,3-triazol-2-yl)phenyl]carbonyl}piperidin-3-yl]oxy}-4-(trifluoromethyl)pyridine], the IC50 stood at 377 nM in assay [1] and 17.8 nM in assay [2].

In the case of `Cc1c(I)ccnc1O[C@@H]1CC[C@@H](C)N(C(=O)c2ccccc2-n2nccn2)C1` [Example 4, 4-iodo-3-methyl-2-{[(3R,6R)-6-methyl-1-{[2-(2H-1,2,3-triazol-2-yl)phenyl]carbonyl}piperidin-3-yl]oxy}pyridine], the half-maximal inhibitory concentration (IC50) in assay [1] came to 118 nM; in assay [2] it was 8.8 nM.

Turning to `C[C@@H]1CC[C@@H](Oc2cc(I)ccn2)CN1C(=O)c1ccccc1-n1nccn1` [Example 5, 4-iodo-2-{[(3R,6R)-6-methyl-1-{[2-(2H-1,2,3-triazol-2-yl)phenyl]carbonyl}piperidin-3-yl]oxy}pyridine], the half-maximal inhibitory concentration (IC50) in assay [1] is 414 nM; in assay [2], 7.3 nM.

For the compound `C[C@@H]1CC[C@@H](Oc2cc(C(F)(F)F)ccn2)CN1C(=O)c1ccccc1-n1ncnn1` [Example 6, 2-{[(3R,6R)-6-Methyl-1-{[2-(2H-tetrazol-2-yl)phenyl]carbonyl}piperidin-3-yl]oxy}-4-(trifluoromethyl)pyridine], the IC50 came to 828 nM in assay [1] and 10 nM in assay [2].

Compound `COc1ccc(C(=O)N2C[C@H](Oc3cc(Cl)ccn3)CC[C@H]2C)c(-n2nccn2)n1` [Example 7, 3-({(2R,5R)-5-[(4-chloropyridin-2-yl)oxy]-2-methylpiperidin-1-yl}carbonyl)-6-methoxy-2-(2H-1,2,3-triazol-2-yl)pyridine] came in with an IC50 in assay [2] of 85.7 nM.

With `COc1ccc(C(=O)N2C[C@H](Oc3nccc(I)c3OC)CC[C@H]2C)c(-n2nccn2)n1` [Example 8, 4-iodo-3-methoxy-2-{[(3R,6R)-1-{[6-methoxy-2-(2H-1,2,3-triazol-2-yl)pyridin-3-yl]carbonyl}-6-methylpiperidin-3-yl]oxy}pyridine], the IC50 in assay [1] came to 2500 nM; in assay [2], 49.3 nM.

In assay [2], `COc1ccc(C(=O)N2C[C@H](Oc3cc(Br)ccn3)CC[C@H]2C)c(-n2nccn2)n1` [Example 9, 3-({(2R,5R)-5-[(4-bromopyridin-2-yl)oxy]-2-methylpiperidin-1-yl}carbonyl)-6-methoxy-2-(2H-1,2,3-triazol-2-yl)pyridine] returned an IC50 of 36.3 nM.

In the case of `C[C@@H]1CC[C@@H](Oc2cc(F)ccn2)CN1C(=O)c1ccccc1-n1ncnn1` [Example 10, 4-fluoro-2-{[(3R,6R)-6-methyl-1-{[2-(2H-tetrazol-2-yl)phenyl]carbonyl}piperidin-3-yl]oxy}pyridine], the IC50 in assay [1] turned out to be 3850 nM; in assay [2], 55 nM.

For the compound `C[C@@H]1CC[C@@H](Oc2cc(Cl)ccn2)CN1C(=O)c1ccccc1-n1ncnn1` [Example 11], the results for the half-maximal inhibitory concentration (IC50) in assay [1] and in assay [2] were 917 nM and 10 nM, respectively.

Regarding `C[C@@H]1CC[C@@H](Oc2cc(Br)ccn2)CN1C(=O)c1ccccc1-n1ncnn1` [Example 12, 4-bromo-2-{[(3R,6R)-6-methyl-1-{[2-(2H-tetrazol-2-yl)phenyl]carbonyl}piperidin-3-yl]oxy}pyridine], the results for the IC50 in assay [1] and in assay [2] were 986 nM and 10 nM, respectively.

For `COc1ccc(C(=O)N2C[C@H](Oc3cc(F)ccn3)CC[C@H]2C)c(-n2nccn2)n1` [Example 13, 3-({(2R,5R)-5-[(4-fluoropyridin-2-yl)oxy]-2-methylpiperidin-1-yl}carbonyl)-6-methoxy-2-(2H-1,2,3-triazol-2-yl)pyridine], the 50% inhibitory concentration (IC50) in assay [2] is 467 nM. This lies in the sub-micromolar range.

For the compound `COc1ccc(C(=O)N2C[C@H](Oc3nccc(I)c3OC)CC[C@H]2C)c(-c2ncccn2)n1` [Example 14, 2-[3-({(2R,5R)-5-[(4-Iodo-3-methoxypyridin-2-yl)oxy]-2-methylpiperidin-1-yl}carbonyl)-6-methoxypyridin-2-yl]pyrimidine], the IC50 in assay [2] stood at 78.7 nM. Compared with the last compound, the IC50 is about 5.9-fold lower.

For `C[C@@H]1CC[C@@H](Oc2cc(Cl)ccn2)CN1C(=O)c1ccccc1-n1nccn1` [Example 15, 4-Chloro-2-{[(3R,6R)-6-methyl-1-{[2-(2H-1,2,3-triazol-2-yl)phenyl]carbonyl}piperidin-3-yl]oxy}pyridine], the figures for the IC50 in assay [1] and in assay [2] were 548 nM and 10.8 nM, respectively.

Consider `C[C@@H]1CC[C@@H](Oc2cc(F)ccn2)CN1C(=O)c1ccccc1-n1nccn1` [Example 16, 4-fluoro-2-{[(3R,6R)-6-methyl-1-{[2-(2H-1,2,3-triazol-2-yl)phenyl]carbonyl}piperidin-3-yl]oxy}pyridine], for which the concentration for half-maximal inhibition (IC50) turned out to be 2310 nM in assay [1] and 34 nM in assay [2].

Turning to `C[C@@H]1CC[C@@H](Oc2cc(Br)ccn2)CN1C(=O)c1ccccc1-n1nccn1` [Example 17, 4-bromo-2-{[(3R,6R)-6-methyl-1-{[2-(2H-1,2,3-triazol-2-yl)phenyl]carbonyl}piperidin-3-yl]oxy}pyridine], the IC50 is 179 nM in assay [1] and 3.8 nM in assay [2].

For `C[C@@H]1CC[C@@H](Oc2cccc(F)c2)CN1C(=O)c1ccccc1-n1nccn1` [Example 18, (2R,5R)-5-(3-fluorophenoxy)-2-methyl-1-{[2-(2H-1,2,3-triazol-2-yl)phenyl]carbonyl}piperidine], in assay [2], the IC50 was determined as 132 nM.

(Values after patent US20160068514A1, “HALO AND TRIFLUOROMETHYL SUBSTITUTED OREXIN RECEPTOR ANTAGONISTS” (MERCK SHARP & DOHME CORP., priority 2013, published 2016).)
